Source: patent US20260069584A1, “METHODS OF TREATING CHRONIC MYELOID LEUKEMIA USING THE TYROSINE KINASE INHIBITOR VODOBATINIB” (Sun Pharma Advanced Research Company Ltd., priority 2022, published 2026)
“Also recorded” adds a separate entry of the source.

Test: Part B: treatment-emergent cardiovascular adverse events (CVAEs)
Type: in vivo, human
Description: For the purpose of the present invention, the adverse events were graded as per the National Cancer Institute's, Common Terminology Criteria for Adverse Events (NCI-CTCAE) Version 4.03 and Version 5.0 (https://evs.nci.nih.gov/ftp1/CTCAE/About.html). It is a descriptive terminology which can be utilized for Adverse Event (AE) reporting.
AEs were graded as per NCI-CTCAE Version 5.0. In the present study, along with others most common AEs for which patients were monitored were thrombocytopenia, neutropenia and anemia, any AE reported by the patient after the completion of AE collection period and considered related to the study drug was reported.
Two CVAEs considered related to the compound of Formula I: one Grade 2 hypertension and one fatal intracranial hemorrhage (ICH) with concomitant disease progression to BP CML.
Table 22 below lists the medical history of patients and CVAEs that were reported in the patient during treatment.

[1] = Prior Ponatinib (N = 22), Any grade
[2] = Prior Ponatinib (N = 22), Grade 3/4
[3] = ≤2 prior TKIs (N = 18), Any grade
[4] = ≤2 prior TKIs (N = 18), Grade 3/4
[5] = ≥3 prior TKIs (N = 35), Any grade
[6] = ≥3 prior TKIs (N = 35), Grade 3/4

Structure (SMILES): Cc1ccc(C(=O)NNC(=O)c2c(C)cccc2Cl)cc1C#Cc1cnc2ccccc2c1 [compound of Formula I, N′-(2-chloro-6-methylbenzoyl)-4-methyl-3-[2-(3-quinolyl)ethynyl]-benzohydrazide]
- patients with CVAEs (1 patient, less than or equal to 2 TKIs): 5.5%
- patients with CVAEs (10 patients, prior ponatinib): 45.4%
- CVAEs unrelated to the compound (12 patients with CV history): 10
- patients with CVAEs (13 patients, more than or equal to 3 TKIs): 37.1%
- patients with CVAEs, any grade (14 patients out of 53): 26.4%
- Treatment-emergent cardiovascular AE: Adverse Events Cluster - Cardiac and vascular events (%) (Overall (N = 53), Any grade): (26.4%)
- Treatment-emergent cardiovascular AE: Angina Pectoris (%) (Overall (N = 53), Any grade): (3.7%)
- Treatment-emergent cardiovascular AE: Arteriosclerosis (%) (Overall (N = 53), Any grade): (1.8%)
- Treatment-emergent cardiovascular AE: Cerebral haemorrhage (%) (Overall (N = 53), Any grade): (1.8%)
- Treatment-emergent cardiovascular AE: Congestive heart failure (%) (Overall (N = 53), Any grade): (1.8%)
- Treatment-emergent cardiovascular AE: Hot flush (%) (Overall (N = 53), Any grade): (1.8%)
- Treatment-emergent cardiovascular AE: Hypertension (%) (Overall (N = 53), Any grade): (7.5%)
- Treatment-emergent cardiovascular AE: Hypotension (%) (Overall (N = 53), Any grade): (1.8%)
- Treatment-emergent cardiovascular AE: Intermittent claudication (%) (Overall (N = 53), Any grade): (1.8%)
- Treatment-emergent cardiovascular AE: Intracranial haemorrhage (%) (Overall (N = 53), Any grade): (1.8%)
- Treatment-emergent cardiovascular AE: Mouth haemorrhage (%) (Overall (N = 53), Any grade): (1.8%)
- Treatment-emergent cardiovascular AE: Palpitations (%) (Overall (N = 53), Any grade): (1.8%)
- Treatment-emergent cardiovascular AE: Syncope (%) (Overall (N = 53), Any grade): (1.8%)
- Treatment-emergent cardiovascular AE: Transient ischaemic attack (%) (Overall (N = 53), Any grade): (1.8%)
- Treatment-emergent cardiovascular AE: Troponin I increased (%) (Overall (N = 53), Any grade): (1.8%)
- Treatment-emergent cardiovascular AEs: Deaths (%) (Overall (N = 53), Any grade): (1.8%)
- Treatment-emergent cardiovascular AEs: Dose interruption and restart (%) (Overall (N = 53), Any grade): (3.7%)
- Treatment-emergent cardiovascular AEs: Leading to drug withdrawal (%) (Overall (N = 53), Any grade): (1.8%)
- Treatment-emergent cardiovascular AEs: Related to study drug (%) (Overall (N = 53), Any grade): (3.7%)
- Treatment-emergent cardiovascular AEs: Serious Adverse Events (%) (Overall (N = 53), Any grade): (7.5%)
- Treatment-emergent cardiovascular AE: Adverse Events Cluster - Cardiac and vascular events (%) (Overall (N = 53), Grade 3/4): (5.6%)
- Treatment-emergent cardiovascular AE: Congestive heart failure (%) (Overall (N = 53), Grade 3/4): (1.8%)
- Treatment-emergent cardiovascular AE: Hypertension (%) (Overall (N = 53), Grade 3/4): (1.8%)
- Treatment-emergent cardiovascular AE: Syncope (%) (Overall (N = 53), Grade 3/4): (1.8%)
- Treatment-emergent cardiovascular AEs: Dose interruption and restart (%) (Overall (N = 53), Grade 3/4): (1.8%)
- Treatment-emergent cardiovascular AEs: Serious Adverse Events (%) (Overall (N = 53), Grade 3/4): (1.8%)
- CVAEs during treatment (Patient 25000603, history: Hypertension, Myocardial ischaemia, prior TKI therapy 3, ponatinib received No): Hypertension
- CVAEs during treatment (Patient 35600503, history: Intracranial hemorrhage, prior TKI therapy 3, ponatinib received No): Oral hemorrhage
- CVAEs during treatment (Patient 35600706, history: Acute myocardial infarction, myocardial ischemia, prior TKI therapy 3, ponatinib received No): Hypertension
- CVAEs during treatment (Patient 41000101, history: Hypertension, prior TKI therapy 3, ponatinib received No): Angina pectoris,; also recorded: Palpitations,; also recorded: Arteriosclerosis
- CVAEs during treatment (Patient 84000202, history: Hypertension, prior TKI therapy 4, ponatinib received Yes): Hypertension,; also recorded: Hypotension
- CVAEs during treatment (Patient 84000203, history: Hypertension, prior TKI therapy 6, ponatinib received Yes): Hot flush
- CVAEs during treatment (Patient 84000206, history: Bradycardia, Hypertension, prior TKI therapy 5, ponatinib received Yes): Angina pectoris
- Treatment-emergent cardiovascular AE: Adverse Events Cluster - Cardiac and vascular events (%) [1]: (45.4%)
- Treatment-emergent cardiovascular AE: Angina Pectoris (%) [1]: (4.5%)
- Treatment-emergent cardiovascular AE: Cerebral haemorrhage (%) [1]: (4.5%)
- Treatment-emergent cardiovascular AE: Congestive heart failure (%) [1]: (4.5%)
- Treatment-emergent cardiovascular AE: Hot flush (%) [1]: (4.5%)
- Treatment-emergent cardiovascular AE: Hypertension (%) [1]: (9.1%)
- Treatment-emergent cardiovascular AE: Hypotension (%) [1]: (4.5%)
- Treatment-emergent cardiovascular AE: Intermittent claudication (%) [1]: (4.5%)
- Treatment-emergent cardiovascular AE: Syncope (%) [1]: (4.5%)
- Treatment-emergent cardiovascular AE: Transient ischaemic attack (%) [1]: (4.5%)
- Treatment-emergent cardiovascular AE: Troponin I increased (%) [1]: (4.5%)
- Treatment-emergent cardiovascular AEs: Serious Adverse Events (%) [1]: (13.6%)
- Treatment-emergent cardiovascular AE: Adverse Events Cluster - Cardiac and vascular events (%) [2]: (13.6%)
- Treatment-emergent cardiovascular AE: Congestive heart failure (%) [2]: (4.5%)
- Treatment-emergent cardiovascular AE: Hypertension (%) [2]: (4.5%)
- Treatment-emergent cardiovascular AE: Syncope (%) [2]: (4.5%)
- Treatment-emergent cardiovascular AEs: Serious Adverse Events (%) [2]: (4.5%)
- CVAEs related to the compound (grade 2 hypertension and fatal intracranial hemorrhage): 2
- major CVAEs (highest dose of 204 mg, as long as 24 months): did not result in major CVAEs
- permanent discontinuation due to CVAEs (human, in vivo): 1
- dose modifications due to CVAEs (in vivo): No dose modifications
- patients reporting CVAEs on study (of thirty patients with medical history of CVAEs): 12 patients
- grade 3 or 4 CVAEs (out of 53): 5.6%
- withdrawal criteria based on QTcF prolongation or safety laboratory tests (patients): No subject reached the subject withdrawal criteria
- Treatment-emergent cardiovascular AE: Adverse Events Cluster - Cardiac and vascular events (%) [3]: (5.5%)
- Treatment-emergent cardiovascular AE: Congestive heart failure (%) [3]: (5.5%)
- Treatment-emergent cardiovascular AE: Adverse Events Cluster - Cardiac and vascular events (%) [4]: (5.5%)
- Treatment-emergent cardiovascular AE: Congestive heart failure (%) [4]: (5.5%)
- Treatment-emergent cardiovascular AE: Adverse Events Cluster - Cardiac and vascular events (%) [5]: (37.1%)
- Treatment-emergent cardiovascular AE: Angina Pectoris (%) [5]: (5.7%)
- Treatment-emergent cardiovascular AE: Arteriosclerosis (%) [5]: (2.8%)
- Treatment-emergent cardiovascular AE: Cerebral haemorrhage (%) [5]: (2.8%)
- Treatment-emergent cardiovascular AE: Hot flush (%) [5]: (2.8%)
- Treatment-emergent cardiovascular AE: Hypertension (%) [5]: (11.4%)
- Treatment-emergent cardiovascular AE: Hypotension (%) [5]: (2.8%)
- Treatment-emergent cardiovascular AE: Intermittent claudication (%) [5]: (2.8%)
- Treatment-emergent cardiovascular AE: Intracranial haemorrhage (%) [5]: (2.8%)
- Treatment-emergent cardiovascular AE: Mouth haemorrhage (%) [5]: (2.8%)
- Treatment-emergent cardiovascular AE: Palpitations (%) [5]: (2.8%)
- Treatment-emergent cardiovascular AE: Syncope (%) [5]: (2.8%)
- Treatment-emergent cardiovascular AE: Transient ischaemic attack (%) [5]: (2.8%)
- Treatment-emergent cardiovascular AE: Troponin I increased (%) [5]: (2.8%)
- Treatment-emergent cardiovascular AE: Ventricular Extrasystoles (%) [5]: (2.8%)
- Treatment-emergent cardiovascular AEs: Deaths (%) [5]: (2.8%)
- Treatment-emergent cardiovascular AEs: Dose interruption and restart (%) [5]: (5.7%)
- Treatment-emergent cardiovascular AEs: Leading to drug withdrawal (%) [5]: (2.8%)
- Treatment-emergent cardiovascular AEs: Related to study drug (%) [5]: (5.7%)
- Treatment-emergent cardiovascular AEs: Serious Adverse Events (%) [5]: (11.4%)
- Treatment-emergent cardiovascular AE: Adverse Events Cluster - Cardiac and vascular events (%) [6]: (5.7%)
- Treatment-emergent cardiovascular AE: Hypertension (%) [6]: (2.8%)
- Treatment-emergent cardiovascular AE: Syncope (%) [6]: (2.8%)
- Treatment-emergent cardiovascular AEs: Dose interruption and restart (%) [6]: (2.8%)
- Treatment-emergent cardiovascular AEs: Serious Adverse Events (%) [6]: (2.8%)
